Measured values as given in EP4786459A1, “BENZENE RING-CONTAINING COMPOUND HAVING ANALGESIC EFFECT, PREPARATION METHOD THEREFOR, AND USE THEREOF” (West China Hospital, Sichuan University, priority 2023, dated 2025).

Tests used:
rats = assay: Loss of tail withdrawal reflex (LOTWR) in rats, single intravenous injection, dose escalation: potent analgesic effect and severe adverse reactions; assay type: in vivo, SD rats; conditions: Rattus norvegicus, single intravenous injection (tail vein), LOTWR lasting for 30 seconds as criterion, class symbol, read-out: The minimum effective dose
Description: (§1) Using the loss of tail withdrawal reflex (LOTWR) in rats as an indicator, the potent analgesic effect of the compounds according to the present invention was evaluated.
(§2) 1.1 Experimental animals: Adult male SD rats weighing between 220-300 g were selected for the experiment. The rats were housed in sawdust-bedded cages with a temperature of 25±1°C, humidity ranging from 40% to 60%, and a 12-hour light/12-hour dark cycle. Each cage contained no more than 5 rats, with free access to water and food.
(§3) • (1) The compound of the present invention, along with the positive control drug remifentanil and the negative control (vehicle), were administered in fixed volumes. A dose escalation approach was employed to determine the minimum effective dose at which the compound of the present invention produces potent analgesic effects, as well as the minimum dose at which severe adverse reactions first appear. • (2) LOTWR lasting for 30 seconds was used as the criterion for generating potent analgesic effects. During the experiment, drugs were administered via the tail vein of rats, with a dosage volume of 0.6 mL per rat and a dosage rate of 0.02 mL/s. Subsequently, an alligator clip was applied at a distance of 1 cm from the base of the rat's tail, clamping once longitudinally and once transversely before being left in place. Meanwhile, the distal end of the alligator clip was continuously oscillated (30 times/min) to continuously generate stimulation. […] When all results were "no LOTWR" after 10 minutes of testing (5 trials), the test was stopped and recorded as "ineffective." • (3) All compounds would undergo a dose escalation for efficacy evaluation, starting from 1 mg/kg (due to the high potency of remifentanil, the lowest dose was set at 1 µg/kg), followed by 5 mg/kg, 10 mg/kg, 20 mg/kg, and so on (increasing by 20 mg/kg increments after 20 mg/kg). The dose escalation would be stopped when rats show signs of death, and the lowest effective dose and the lowest dose at which severe adverse reactions occur would be recorded throughout the process. In this study, severe adverse reactions are defined as apnea, generalized tonic rigidity, convulsions, opisthotonus, seizures, etc.
(§4) 1.3 Evaluation indicators: the minimum effective dose; the minimum dose resulting in serious adverse reactions; the safety therapeutic index = "the minimum dose resulting in serious adverse reactions" / "the minimum effective dose".

[1] = as above; assay type: in vivo, SD rats; conditions: rat, in vivo, single intravenous injection, minimum dose resulting in serious adverse reactions / minimum effective dose, class symbol, read-out: The safety therapeutic index
Description: as §1, §2, §3, §4

## Cc1ccc(CNC(=S)NCc2cccs2)cc1N(C)C [Example 32]
rats
  minimal effective dose: ≤ 10 mg/kg
[1]
  selectivity ratio: > 4

## Cc1ccc(CNC(=N)NCc2cccs2)cc1N(C)C [Example 33]
rats
  minimal effective dose: ≤ 10 mg/kg
[1]
  selectivity ratio: ≤ 2

## CN(C)c1cccc(CNC(=O)NCc2cccs2)c1 [Example 34]
rats
  minimal effective dose: 20 to 30 mg/kg
[1]
  selectivity ratio: ≤ 2

## Cc1ccc(CNC(=O)NCc2ccoc2)cc1N(C)C [Example 35]
rats
  minimal effective dose: 20 to 30 mg/kg
[1]
  selectivity ratio: 2 to 4

## Cc1ccc(CNC(=O)NCc2ccco2)cc1N(C)C [Example 36]
rats
  minimal effective dose: ≤ 10 mg/kg
[1]
  selectivity ratio: > 4

## Cc1ccc(CNC(=O)NCc2ccns2)c(N(C)C)c1 [Example 37]
rats
  minimal effective dose: ≤ 10 mg/kg
[1]
  selectivity ratio: > 4

## Cc1ccc(CNC(=O)NCc2cncs2)c(N(C)C)c1 [Example 38]
rats
  minimal effective dose: 10 to 20 mg/kg
[1]
  selectivity ratio: 2 to 4

## Cc1ccc(CNC(=O)NCc2nccs2)c(N(C)C)c1 [Example 39]
rats
  minimal effective dose: 10 to 20 mg/kg
[1]
  selectivity ratio: 2 to 4

## CN(C)c1ccccc1CNC(=O)NCc1ccns1 [Example 41]
rats
  minimal effective dose: > 30 mg/kg
[1]
  selectivity ratio: ≤ 2

## Cc1ccc(CNC(=O)NCc2ccno2)c(N(C)C)c1 [Example 42]
rats
  minimal effective dose: > 30 mg/kg
[1]
  selectivity ratio: ≤ 2

## Cc1ccc(CNC(=O)NCc2ncc[nH]2)c(N(C)C)c1 [Example 43]
rats
  minimal effective dose: 10 to 20 mg/kg
[1]
  selectivity ratio: > 4

## COC(=O)CCc1ccc(CNC(=O)NCc2ccsc2)c(N(C)C)c1 [Example 44]
rats
  minimal effective dose: 10 to 20 mg/kg
[1]
  selectivity ratio: ≤ 2

## CNC(=O)CCc1ccc(CNC(=O)NCc2ccsc2)c(N(C)C)c1 [Example 45]
rats
  minimal effective dose: > 30 mg/kg
[1]
  selectivity ratio: 2 to 4

## Cc1ccc(CNC(=O)NCc2nnn[nH]2)c(N(C)C)c1 [Example 46]
rats
  minimal effective dose: > 30 mg/kg
[1]
  selectivity ratio: ≤ 2

## COc1c(N(C)C)cc(CNC(=O)NCc2ccsc2)cc1N(C)C [Example 47]
rats
  minimal effective dose: ≤ 10 mg/kg
[1]
  selectivity ratio: ≤ 2

## CN(C)c1ccc(Oc2ccccc2)cc1CNC(=O)NCc1ccsc1 [Example 48]
rats
  minimal effective dose: ≤ 10 mg/kg
[1]
  selectivity ratio: 2 to 4

## Cc1ccc(N(C)C)c(CNC(=O)NCc2ccns2)c1 [Example 49]
rats
  minimal effective dose: > 30 mg/kg
[1]
  selectivity ratio: 2 to 4

## COC(=O)c1ccc(CNC(=O)NCc2ccc(C)cc2N(C)C)s1 [Example 50]
rats
  minimal effective dose: 20 to 30 mg/kg
[1]
  selectivity ratio: ≤ 2

## CCCCc1cc(CNC(=O)NCc2ccc(C)cc2N(C)C)cs1 [Example 51]
rats
  minimal effective dose: ≤ 10 mg/kg
[1]
  selectivity ratio: 2 to 4

## CCCCc1cscc1CNC(=O)NCc1ccc(C)cc1N(C)C [Example 52]
rats
  minimal effective dose: ≤ 10 mg/kg
[1]
  selectivity ratio: 2 to 4

## CCCCc1ccc(CNC(=O)NCc2ccsc2)c(N(C)C)c1 [Example 53]
rats
  minimal effective dose: ≤ 10 mg/kg
[1]
  selectivity ratio: ≤ 2

## Cc1ccc(CNC(=O)NCc2ccsc2)c(N2CCCCC2)c1 [Example 54]
rats
  minimal effective dose: ≤ 10 mg/kg
[1]
  selectivity ratio: ≤ 2

## CCN(CC)c1cc(C)ccc1CNC(=O)NCc1ccsc1 [Example 55]
rats
  minimal effective dose: ≤ 10 mg/kg
[1]
  selectivity ratio: ≤ 2

## CN(C)c1cc(CCNC(=O)C2COC2)ccc1CNC(=O)NCc1ccsc1 [Example 56]
rats
  minimal effective dose: ≤ 10 mg/kg
[1]
  selectivity ratio: ≤ 2

## CNc1cc(C)ccc1CNC(=O)NCc1ccsc1 [Example 57]
rats
  minimal effective dose: 10 to 20 mg/kg
[1]
  selectivity ratio: ≤ 2

## Cc1ccc(CNC(=O)NCc2ncc[nH]2)cc1N(C)C [Example 58]
rats
  minimal effective dose: > 30 mg/kg
[1]
  selectivity ratio: ≤ 2

## Cc1ccc(NC(=O)NCc2ncc[nH]2)c(N(C)C)c1 [Example 59]
rats
  minimal effective dose: 10 to 20 mg/kg
[1]
  selectivity ratio: 2 to 4

## Cc1ccc(NC(=O)NCc2ccns2)c(N(C)C)c1 [Example 60]
rats
  minimal effective dose: 10 to 20 mg/kg
[1]
  selectivity ratio: ≤ 2

## Cc1ccc(CNC(=O)Nc2ccns2)c(N(C)C)c1 [Example 61]
rats
  minimal effective dose: ≤ 10 mg/kg
[1]
  selectivity ratio: ≤ 2

## Cc1ccc(CNC(=O)NCc2ccccc2)c(N(C)C)c1 [Example 62]
rats
  minimal effective dose: 10 to 20 mg/kg
[1]
  selectivity ratio: 2 to 4
